Test results as given in ChEMBL document CHEMBL3351249, “Potent cholesteryl ester transfer protein inhibitors of reduced lipophilicity: 1,1'-spiro-substituted hexahydrofuroquinoline derivatives” (J Med Chem, 2014).

Target: T1, Cholesteryl ester transfer protein (Homo sapiens, UniProt P11597)
T1 sequence (P11597 whole entry): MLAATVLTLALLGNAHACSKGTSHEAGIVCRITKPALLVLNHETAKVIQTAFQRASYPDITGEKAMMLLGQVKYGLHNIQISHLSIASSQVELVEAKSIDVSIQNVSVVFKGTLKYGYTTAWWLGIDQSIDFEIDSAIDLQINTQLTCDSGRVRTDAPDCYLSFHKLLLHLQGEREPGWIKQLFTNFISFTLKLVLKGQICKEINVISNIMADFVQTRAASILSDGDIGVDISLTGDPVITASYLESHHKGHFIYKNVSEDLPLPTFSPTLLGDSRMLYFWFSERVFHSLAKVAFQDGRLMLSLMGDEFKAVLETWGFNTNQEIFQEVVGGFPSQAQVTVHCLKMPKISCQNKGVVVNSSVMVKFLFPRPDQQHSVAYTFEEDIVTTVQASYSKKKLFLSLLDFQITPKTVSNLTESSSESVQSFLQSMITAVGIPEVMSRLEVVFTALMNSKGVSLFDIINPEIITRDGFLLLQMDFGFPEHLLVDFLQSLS
Experiment: Inhibition of human recombinant CETP by fluorescence transfer assay

Structure (SMILES): CC(C)c1nc2c(c3c1[C@@H](c1ccccc1)OC31CCCC1)[C@@H](O)CC(C)(C)C2
- IC50: 4.05 µM
